# According to patent US10851051B2, “Compositions and methods for treating multiple myeloma” (THE BROAD INSTITUTE, INC., priority 2015, dated 2020):
# Entries after “also recorded” stand apart in the source; their conditions may differ.
# Key:
# [1] = test system: MOLP5 cells; experiment: Growth inhibition of MOLP5 cells by BRD9647 analogs; format: cell-based; conditions: FIG. 1E; for growth inhibition in MOLP5 cells compared with other analogs: various concentrations
# Excerpt: (§1) BRD9647 was identified in a phenotypic screening of multiple myeloma cells as a growth inhibitor of certain stroma-dependent myeloma cells. […] FIG. 1B is a plot showing viability of multiple myeloma cell lines (primary multiple myeloma (primary MM) cells (with stroma), MOLP5 (with stroma), and MM1S (with stroma)) treated with various concentrations of BRD9647. For these experiments GFP-labeled MOLP5 and MM1S cells were co-cultured with unlabeled primary human bone marrow stromal cells in 384-well plates and exposed to increasing concentrations of BRD9647 for 3 days. At the end of this period, wells were imaged in the GFP channel with the IXMicro automated high-throughput microscope (Molecular Devices), remaining GFP positive cells were quantified using the MetaXpress software (Molecular Devices) and expressed as percentages of DMSO (vehicle) controls. Unlabeled primary MM cells were similar treated with BRD9647 but were stained with the calcein-acetoxymethyl ester dye at the end of the treatment period. The dye fluoresces green inside viable cells that contain esterase enzymes. Viable cells were imaged and quantified similar to GFP-positive myeloma cell-lines using size, shape and staining intensity to distinguish primary MM from stromal cells. FIG. 1C depicts images showing the viability of primary MM and MOLP5 myeloma cell lines that received BRD9647 treatment in the presence and absence of stromal co-culture. […] Viable cells in these experiments after 3 days of compound exposure were measured using the Cell Titer Glo reagent (Promega).
# Fluoro-benzoyl analogs of BRD9647 were synthesized and used to study the structure-function relationship between BRD9647 and each compound's ability to inhibit growth in MOLP5 cells. […] The BRD9647 analogs measured were either mono-fluorinated at the para (FIG. 1F), meta (FIG. 1G), or ortho (FIG. 1H) positions of the benzoyl ring, or tri-fluorinated at both meta positions and one ortho position of the ring (FIG. 1I). […]
# [2] = test system: stroma-dependent myeloma cells (primary MM, MOLP5); experiment: Viability of stroma-dependent myeloma cells co-cultured with bone marrow stromal cells (imaging, 3 days); format: cell-based; conditions: primary MM and MOLP5, FIG. 1B-1C
# Excerpt: as §1, with “cells.” for “cells. FIG. 1C depicts images showing the viability of primary MM and MOLP5 myeloma cell lines that received BRD9647 treatment in the presence and absence of stromal co-culture.”
# [3] = test system: MOLP5 cells; experiment: Spermidine rescue of growth inhibition in MOLP5 cells; format: cell-based; conditions: MOLP5 + 10 or 100 μM spermidine, FIG. 7A
# Experimental: MOLP5 cells with 100 μM spermidine (“MOLP5+100 μM Spd”), and MOLP5 cells with 10 μM spermidine (“MOLP5+10 μM Spd”), each.
# Polyamines such as spermidine rescued the effects of BRD9647. FIG. 7B depicts the structure of spermidine. […] However, BRD9647 may be reactive with spermidine, as polyamines such as spermidine or spermine can directly react with BRD9647 via a benzoylation reaction (FIG. 7C) to form benzoylated polyamine products (FIG. 8 and FIG. 9).
# [4] = test system: benzoylated lysines on proteins; experiment: Immunoblot for benzoylated lysines (Kbz antibody) in treated cells; format: cell-based; conditions: versus DMSO controls, FIG. 15
# [5] = test system: MOLP5 cells expressing AZIN1-WT; experiment: Viability of MOLP5 cells expressing wild-type AZIN1 under BRD9647; format: cell-based; conditions: FIG. 4D, 5A; lentiviral AZIN1-WT
# Excerpt: MOLP5 cells sensitive to BRD9647 contained a mutation in AZIN1 (FIG. 4B). The mutation in AZIN1 was S367G. MOLP5 cells raised to be resistant to BRD9647 through serial exposures to increasing concentrations of BRD9647 over 3 months (MOLP5-R) lost the AZIN1 mutation that conferred sensitivity to BRD9647 (FIG. 4C). For experiments in FIGS. 4B and 4C, RNA was isolated from MOLP5 or MOLP5-R cells and converted into complementary DNA (cDNA). The AZIN1 polynucleotide was PCR amplified from cDNA then subject to Sanger sequencing. […] The growth of MOLP5 AZIN1-WT expressing cells in the presence of BRD9647 resembles the growth of untreated MOLP5 cells. For these experiments, lentiviral vectors (pLX_TRC304) encoding the AZIN1 open reading frame with the wild-type sequence or S367G mutant sequence and the puromycin resistance gene were transduced into MOLP5 cells which were then subjected to puromycin selection. […] A schematic of AZIN1 S367G's role in polyamine synthesis is shown at FIG. 6.
# [6] = test system: MOLP5 cells; experiment: Gene expression profiling of treated MOLP5 cells (microarray, GSEA); format: cell-based; conditions: 10 μM, 6 hours
# Experimental: Gene-expression analysis identified endoplasmic reticulum (ER) stress as an effect of BRD9647 in BRD9647-sensitive cells. […] For this experiment, MOLP5 cells were exposed to DMSO or 10 μM BRD9647 for 6 hours then subject to total RNA extraction using the TRIzol reagent (Thermo-Fisher). RNA was then hybridized to the Affymetrix U133 2.0 Plus oligonucleotide microarray (Affymetrix) and relative transcripts quantified following the manufacturer's protocol. Differential gene expression analysis was conducted using the Comparative Marker Selection module of GenePattern software (www.broadinstitute.org/genepattern). […] As show in FIG. 2C, Connectivity Map (CMap) analysis was conducted (www.broadinstitute.org/cmap) to compare a gene expression profile of […] with known gene expression profiles of over 5000 compounds to identify potential drugs showing a similar mechanism of action. Protein synthesis inhibitors of interest identified by the analysis are shown in boxes (FIG. 2C).
# [7] = test system: ~100 cell lines from the Broad Institute CTD2 Center; experiment: Viability of ~100 Broad CTD2 cell lines (Cell Titer Glo, 3 days); format: cell-based; conditions: 3 days compound exposure, FIG. 1D
# Excerpt: as §1, with “cells.” for “cells. FIG. 1C depicts images showing the viability of primary MM and MOLP5 myeloma cell lines that received BRD9647 treatment in the presence and absence of stromal co-culture.”
# [8] = test system: purified proteins (recombinant proteins, histones); experiment: Incubation of labeled compound with purified proteins (SDS-PAGE autoradiography, mass spectrometry); format: biochemical; conditions: FIG. 12, 13
# [9] = test system: BRD9647-sensitive cells; experiment: Tracing of radiolabeled compound in cell extracts (TRIzol, TLC, protein extract); format: cell-based; conditions: TRIzol or protein extract of treated cells, FIG. 10, 14
# Experimental: FIG. 10 is a diagram showing results of a tracing experiment with a TRIzol treated extract of cells treated with 10 μM ^14C-BRD9647 for six hours.
# In FIG. 14, the workflow and results of a ^14C-BRD9647 tracing experiment with protein extract from cells treated with ^14C-BRD9647 are shown.
compound,measurement,setting,value
COc1ccc(N(C(=O)c2ccc(F)cc2)S(=O)(=O)c2cc(OC)ccc2OC)cc1 [Compound 1],growth inhibitory activity in MOLP5 cells compared with BRD9647,[1]; FIG. 3,"similar, if not increased efficacy to BRD9647"
same,growth inhibition in MOLP5 cells compared with other analogs,[1],increased growth inhibition at each concentration of active over m-fluorobenzoyl (zb-179-2) or o-fluorobenzoyl analogs (zb-16-14)
COc1ccc(N(C(=O)c2ccccc2)S(=O)(=O)c2cc(OC)ccc2OC)cc1 [BRD9647],toxicity to myeloma cells with and without stromal co-culture,[2],selectively toxic to stroma-dependent myeloma cells
same,growth inhibition in presence of excess spermidine,[3],excess spermidine rescued BRD9647 growth inhibition
same,benzoylated lysines in treated cells,[4],an increase in benzoylated lysines
same,sensitivity of MOLP5 cells expressing wild-type AZIN1,[5],wild-type AZIN1 expression in MOLP5 cells conferred resistance to BRD9647
same,gene expression signature of treated cells,[6],under ER stress or amino acid deprivation
same,viability of cell line panel,[7],"inhibited stroma-dependent multiple myeloma (MM) cells, but not most cell lines"
COc1ccc(N(C(=O)c2ccccc2)S(=O)(=O)c2cc(OC)ccc2OC)cc1 [^13C-BRD9647],covalent binding to purified proteins,[8],identify labeled lysines
COc1ccc(N(C(=O)c2cc(F)cc(F)c2F)S(=O)(=O)c2cc(OC)ccc2OC)cc1 [Compound 4],growth inhibition in MOLP5 cells compared with other analogs,[1],all mono substituted analogs appear to inhibit growth substantially more than the tri-fluorinated analog
COc1ccc(N(C(=O)c2ccccc2)S(=O)(=O)c2cc(OC)ccc2OC)cc1 [^14C-BRD9647],protein binding in treated cells,[9],suggest protein binding or modification of proteins; also recorded: tight protein binding at ˜15 kD molecular weight
same,covalent binding to purified proteins,[8],covalent binding of ^14C-BRD9647 with purified proteins was possible
